Source: ChEMBL document CHEMBL1201862, “PubChem BioAssay data set” (2004)
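A five-concentration, 48-hour dose response in 96-well plates underlies each endpoint, interpolated linearly between surrounding concentrations. The concentration for 50% growth inhibition is given as GI50.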 The source made the active and inactive calls. No stated cut-off is given here; in the data, active = GI50 up to about 1.1 µM and inactive = higher.

Columns and labels:
Assay in all cases: NCI-60 cell line screen, 48 h
[1] = test system: NCI-H23
[2] = test system: U-251
[3] = test system: HL-60
[4] = test system: RPMI-8226
[5] = test system: SK-MEL-2
[6] = test system: EKVX
[7] = test system: HCC 2998
[8] = test system: SNB-75
[9] = test system: CCRF-CEM
[10] = test system: NCI-H460
[11] = test system: SK-OV-3
[12] = test system: OVCAR-4
[13] = test system: KM12
[14] = test system: UACC-62
[15] = test system: HCT-116
[16] = test system: UACC-257
[17] = test system: A498

Structure (SMILES)	GI50 [1]	GI50 [2]	GI50 [3]	GI50 [4]	GI50 [5]	GI50 [6]	GI50 [7]	GI50 [8]	GI50 [9]	GI50 [10]	GI50 [11]	GI50 [12]	GI50 [13]	GI50 [14]	GI50 [15]	GI50 [16]	GI50 [17]
COc1cc(-c2cc(O)c3cc4c(cc3n2)OCO4)cc(OC)c1OC	56.2 µM (inactive)	60 µM (inactive)	> 100 µM (inactive)	> 100 µM (inactive)	92.7 µM (inactive)	> 100 µM (inactive)	> 100 µM (inactive)	> 100 µM (inactive)	> 100 µM (inactive)	> 100 µM (inactive)	37.5 µM (inactive)	> 100 µM (inactive)	> 100 µM (inactive)	51.5 µM (inactive)			
COc1ccc(C(c2ccc(C(C)C)cc(=O)c2O)c2ccc3cccnc3c2O)cc1 (stereo unspecified)	0.349 µM (active)	0.438 µM (active)	0.863 µM (active)	1.97 µM (inactive)	2.02 µM (inactive)	1.27 µM (inactive)		0.155 µM (active)	0.604 µM (active)	0.297 µM (active)	2.3 µM (inactive)	2.88 µM (inactive)	1.45 µM (inactive)	0.735 µM (active)	0.318 µM (active)		
CCCCCC(/C=C/c1ncccc1OCCCCCC(=O)O)=N\NC1=NCCN1			57.8 µM (inactive)	29.4 µM (inactive)	48.9 µM (inactive)	> 100 µM (inactive)	> 100 µM (inactive)	40.2 µM (inactive)	53.6 µM (inactive)	51.9 µM (inactive)	> 100 µM (inactive)	78.7 µM (inactive)	54.3 µM (inactive)	44.1 µM (inactive)	43.4 µM (inactive)		
Clc1ccccc1C(n1ncc2ccccc21)n1ncc2ccccc21	24 µM (inactive)	35.8 µM (inactive)	18.6 µM (inactive)	18.2 µM (inactive)	33.3 µM (inactive)		31.5 µM (inactive)	17 µM (inactive)	28.5 µM (inactive)	35.8 µM (inactive)	> 10 µM (inactive)	51.6 µM (inactive)	25.7 µM (inactive)	> 10 µM (inactive)	25.6 µM (inactive)	40.8 µM (inactive)	35.6 µM (inactive)
Cc1cc(N(CCC#N)CCC#N)ccc1/C=C(\NC(=O)/C=C/c1ccccc1)C(=O)Nc1ccccc1Cl	> 100 µM (inactive)	59.6 µM (inactive)	> 100 µM (inactive)	> 100 µM (inactive)	> 100 µM (inactive)	> 100 µM (inactive)	> 100 µM (inactive)		> 100 µM (inactive)	> 100 µM (inactive)		> 100 µM (inactive)	> 100 µM (inactive)	> 100 µM (inactive)	> 100 µM (inactive)	> 100 µM (inactive)	> 100 µM (inactive)
CN1C2CCC1/C(=C/c1cccc3c1OCO3)C(=O)/C2=C\c1cccc2c1OCO2	> 100 µM (inactive)	24.5 µM (inactive)	> 100 µM (inactive)	> 100 µM (inactive)	> 100 µM (inactive)	> 100 µM (inactive)	> 100 µM (inactive)	11.1 µM (inactive)	78 µM (inactive)	> 100 µM (inactive)	85.7 µM (inactive)		> 100 µM (inactive)	14.3 µM (inactive)	> 100 µM (inactive)	> 100 µM (inactive)	
Clc1cc2nsnc2c(Cl)n1	19.1 µM (inactive)	20.3 µM (inactive)	14.1 µM (inactive)	22.2 µM (inactive)	17.2 µM (inactive)	> 100 µM (inactive)	> 100 µM (inactive)		6.03 µM (inactive)	38.5 µM (inactive)	2.62 µM (inactive)	17.1 µM (inactive)	47.2 µM (inactive)	26.5 µM (inactive)		26.7 µM (inactive)	> 100 µM (inactive)
COC(=O)C1=C(C)N2CCOC2CC1c1ccccc1 (stereo unspecified)	84.1 µM (inactive)		53.5 µM (inactive)	40.4 µM (inactive)	> 100 µM (inactive)	> 100 µM (inactive)	> 100 µM (inactive)	> 100 µM (inactive)	45.4 µM (inactive)	> 100 µM (inactive)		> 100 µM (inactive)	> 100 µM (inactive)	> 100 µM (inactive)	> 100 µM (inactive)	> 100 µM (inactive)	
CC(=O)Nc1ccc(C(=O)NN2C(=O)C(Cl)C2c2cccc([N+](=O)[O-])c2)cc1 (stereo unspecified)	> 100 µM (inactive)	> 100 µM (inactive)	> 100 µM (inactive)	> 100 µM (inactive)	> 100 µM (inactive)		> 100 µM (inactive)	> 100 µM (inactive)	> 100 µM (inactive)	> 100 µM (inactive)	> 100 µM (inactive)		> 100 µM (inactive)	> 100 µM (inactive)	> 100 µM (inactive)	> 100 µM (inactive)	
O=C1C(=C2CCCC2)CCC1CN1CCCCC1 (stereo unspecified)	18.7 µM (inactive)	> 100 µM (inactive)	4.63 µM (inactive)		16.5 µM (inactive)	18.8 µM (inactive)	16.3 µM (inactive)	0.489 µM (active)	14.3 µM (inactive)	> 10 µM (inactive)		16.5 µM (inactive)	18.6 µM (inactive)	18.5 µM (inactive)	18.6 µM (inactive)	19.4 µM (inactive)	19.4 µM (inactive)
CCOC(=O)C1S/C(=N\c2ccc(Cl)cc2Cl)N=C1C (stereo unspecified)	39.4 µM (inactive)	58.1 µM (inactive)	68.4 µM (inactive)		61.5 µM (inactive)	> 100 µM (inactive)	> 100 µM (inactive)	26.1 µM (inactive)		86.5 µM (inactive)		20.8 µM (inactive)	> 100 µM (inactive)	46.9 µM (inactive)	65.6 µM (inactive)	88.3 µM (inactive)	39.3 µM (inactive)
N#CC1C(=O)C(=O)N(c2ccccc2)C1=O (stereo unspecified)	> 100 µM (inactive)	> 100 µM (inactive)		> 100 µM (inactive)	> 100 µM (inactive)	> 100 µM (inactive)	> 100 µM (inactive)	81.3 µM (inactive)		> 100 µM (inactive)	> 100 µM (inactive)	> 100 µM (inactive)	> 100 µM (inactive)	> 100 µM (inactive)	> 100 µM (inactive)	> 100 µM (inactive)	> 100 µM (inactive)
COc1ccc(C(=O)C(C(=O)C(=O)NC2C3CC4CC(C3)CC2C4)c2ccc(OC)cc2)cc1 (stereo unspecified)	> 100 µM (inactive)	> 100 µM (inactive)	> 100 µM (inactive)	> 100 µM (inactive)	> 100 µM (inactive)	> 100 µM (inactive)	> 100 µM (inactive)	16.6 µM (inactive)	> 100 µM (inactive)	> 100 µM (inactive)	> 100 µM (inactive)	> 100 µM (inactive)	> 100 µM (inactive)	> 100 µM (inactive)	> 100 µM (inactive)	> 100 µM (inactive)	> 100 µM (inactive)
O=C(CCc1ccccc1)CC1OC(=O)C(Cl)=C1Cl (stereo unspecified)	19.1 µM (inactive)	16.4 µM (inactive)		32.6 µM (inactive)	19.1 µM (inactive)	38.9 µM (inactive)	18.6 µM (inactive)	53.6 µM (inactive)	29.6 µM (inactive)	33.5 µM (inactive)	45.6 µM (inactive)	96.4 µM (inactive)	17.5 µM (inactive)	17 µM (inactive)	14.8 µM (inactive)	21.3 µM (inactive)	34 µM (inactive)
CC12CC3CC(C1)CC(N=[N+]=[N-])(C3)C2	> 100 µM (inactive)	> 100 µM (inactive)		> 100 µM (inactive)	> 100 µM (inactive)	> 100 µM (inactive)	> 100 µM (inactive)	> 100 µM (inactive)	> 100 µM (inactive)	> 100 µM (inactive)	> 100 µM (inactive)	> 100 µM (inactive)	> 100 µM (inactive)	> 100 µM (inactive)	> 100 µM (inactive)	> 100 µM (inactive)	> 100 µM (inactive)
C=CC1(C)CCC2=C(CCC3C(C)(C(=O)OC)CCCC23C)C1=O (stereo unspecified)	19.5 µM (inactive)	15.6 µM (inactive)	28.7 µM (inactive)	21.7 µM (inactive)	17.9 µM (inactive)	18.7 µM (inactive)			21.4 µM (inactive)	18.3 µM (inactive)	18.9 µM (inactive)	14.7 µM (inactive)	17.4 µM (inactive)	18.3 µM (inactive)	17.3 µM (inactive)	22.8 µM (inactive)	14.8 µM (inactive)
CCOC(=O)CSC(=O)NCCCl	> 100 µM (inactive)	> 100 µM (inactive)			> 100 µM (inactive)	> 100 µM (inactive)	> 100 µM (inactive)	> 100 µM (inactive)		> 100 µM (inactive)	> 100 µM (inactive)	> 100 µM (inactive)	> 100 µM (inactive)	> 100 µM (inactive)	> 100 µM (inactive)	> 100 µM (inactive)	> 100 µM (inactive)
COc1ccc(N(CC(=O)O)S(=O)(=O)c2ccccc2)cc1	> 100 µM (inactive)	> 100 µM (inactive)	> 100 µM (inactive)	> 100 µM (inactive)	> 100 µM (inactive)	> 100 µM (inactive)			> 100 µM (inactive)	> 100 µM (inactive)	> 100 µM (inactive)	> 100 µM (inactive)	> 100 µM (inactive)	> 100 µM (inactive)		> 100 µM (inactive)	> 100 µM (inactive)
